According to patent EP4553077A1 (Kinoteck Therapeutics Co., Ltd, priority 2022, dated 2024):

Each compound was assayed against Ba/F3-TEL-FGFR2 (Homo sapiens, UniProt P21802+P41212) (assay: Cell viability (proliferation inhibition) of Ba/F3 cells, CellTiter Glo). Conditions: read-out: Ba/F3 cell FGFR2 (IC50 nM), 72 h.
Chain of Ba/F3-TEL-FGFR2 (P21802 481-770 limits assumed, one chain of several): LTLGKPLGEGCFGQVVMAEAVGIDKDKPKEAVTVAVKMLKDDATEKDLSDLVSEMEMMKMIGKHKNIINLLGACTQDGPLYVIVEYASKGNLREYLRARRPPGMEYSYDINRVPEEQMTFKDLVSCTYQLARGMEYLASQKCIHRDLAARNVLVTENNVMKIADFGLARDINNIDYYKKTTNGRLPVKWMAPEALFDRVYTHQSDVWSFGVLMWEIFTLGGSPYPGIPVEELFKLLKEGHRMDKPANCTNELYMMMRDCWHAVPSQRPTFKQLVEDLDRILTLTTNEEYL

Compound	IC50 [nM]
CN(C)C/C=C/C(=O)N1CC=C(c2c(-c3ccc(N=S4(=O)CCCCC4)cc3)c3c(N)ncnc3n2C)CC1 [Compound 67, (E)-1-(4-(4-amino-7-methyl-5-(4-((1-oxotetrahydro-2H-1λ^6-thiopyran-1-ylidene)amino)phenyl) -7H-pyrrolo [2,3-d]pyrimidin-6-yl) -3,6-dihydropyridine-1 (2H)-yl) -4-(dimethylamino) but-2-enyl-1-one]	105
CC#CC(=O)Nc1ccc(-c2c(-c3ccc(N=S4(=O)CCCC4)cc3)c3c(N)ncnc3n2C)c(F)c1 [Compound 112, N-(4-(4-amino-7-methyl-5-(4-((1-tetrahydro-1λ^6-thiophene-1-ylidene)amino)phenyl) -7H-pyrrolo [2,3-d]pyrimidin-6-yl) -3-fluorophenyl) but-2-ynamide]	2
C=C(C)C(=O)Nc1ccc(-c2c(-c3ccc(N=S4(=O)CC5(CC5)C4)cc3)c3c(N)ncnc3n2C)c(F)c1 [Compound 72]	2.2
C=C(C)C(=O)Nc1ccc(F)c(-c2c(-c3ccc(N=S(=O)(N(C)C)C(F)(F)F)cc3)c3c(N)ncnc3n2C)c1 (stereo not shown) [Compound 39]	10.2
C=C(C)C(=O)Nc1ccc(-c2c(-c3cc(F)c(N=S4(=O)CCCC4)c(F)c3)c3c(N)ncnc3n2C)cc1 [Compound 27, N-(4-(4-amino-5-(3,5-difluoro-4-((1-oxotetrahydro-1 λ^6-thiophene-1-ylidene)amino)phenyl) -7-methyl-7H-pyrrolo [2,3-d]pyrimidin-6-yl)phenyl) methacrylamide]	26
C=C(C)C(=O)Nc1ccc(-c2c(-c3ccc(N=S4(=O)CCCCC4)cc3)c3c(N)ncc(C#N)c3n2C)c(F)c1 [Compound 64, N-(4-(4-amino-7-cyano-1-methyl-3-(4-((1-oxotetrahydro-2H-1λ^6-thiopyran-1-ylidene)amino)phenyl) -1H pyrrolo [3,2-c]pyridine-2-yl) -3-fluorophenyl) methacrylamide]	658
C=C(C)C(=O)Nc1ccc(-c2c(-c3cc(F)c(N=S(=O)(CC)CC)cc3F)c3c(N)ncnc3n2C)c(F)c1 [Compound 76]	6.1
C=C(C)C(=O)Nc1ccc(-c2c(-c3ccc(N=S(=O)(N4CCC4)C(F)(F)F)cc3)c3c(N)ncnc3n2C)cc1 (stereo not shown) [Compound 51, N-(4-(4-amino-5-(4-((azetidin-1-yl(oxo)(trifluoromethyl)-λ^6-sulfanylidene)amino)phenyl) -7-methyl-7H-pyrrolo [2,3-d]pyrimidin-6-yl)phenyl) methacrylamide]	19.1
CC#CC(=O)Nc1ccc(-c2c(-c3ccc(N=S4(=O)CCCC4)cc3)c3c(N)ncnc3n2C)cc1 [Compound 60, N-(4-(4-amino-7-methyl-5-(4-((1-oxotetrahydro-1 λ^6-thiophene-1-ylidene)amino)phenyl) -7H-pyrrolo [2,3-d]pyrimidin-6-yl)phenyl) but-2-ynamide]	13.1
C=C(C)C(=O)Nc1ccc(-c2c(-c3ccc(N=S(=O)(NCC)C(F)(F)F)c(F)c3)c3c(N)ncnc3n2C)cc1 (stereo not shown) [Compound 71, N-(4-(4-amino-5-(4-(((ethylamino)(oxo)(trifluoromethyl)-1 λ^6-sulfaneylidene)amino)-3-fluorophenyl)-7-methyl-7H-pyrrolo[2,3-d]pyrimidin-6-yl)phenyl) methacrylamide]	2.5
C=C(C)C(=O)Nc1ccc(-c2c(-c3ccc(N=S4(=O)CCCCC4)c(F)c3)c3c(N)ncnc3n2C)cc1F [Compound 37, N-(4-(4-amino-5-(3-fluoro-4-((1-oxotetrahydro-2H-1 λ^6-thiopyran-1-ylidene)amino)phenyl) -7-methyl-7H-pyrrolo [2,3-d]pyrimidin-6-yl) -2-fluorophenyl) methacrylamide]	32
C=C(C)C(=O)Nc1ccc(-c2c(-c3ccc(N=S4(=O)CCOCC4)cc3)c3c(N)ncnc3n2C)c(F)c1 [Compound 105]	20.9
C=C(C)C(=O)Nc1ccc(-c2c(-c3ccc(N=S4(=O)CC(C)(C)C4)c(F)c3)c3c(N)ncnc3n2C)c(F)c1 [Compound 106, N-(4-(4-amino-5-(4-((3,3-dimethyl-1-oxo-1 λ^6-thiocyclobutan-1-ylidene)amino) -3-fluorophenyl) -7-methyl-7H-pyrrolo [2,3-d]pyrimidin-6-yl) -3-fluorophenyl) methacrylamide]	2.2
C=C(C)C(=O)Nc1ccc(-c2c(-c3ccc(N=S4(=O)CCCCC4)c(F)c3)c3c(N)ncnc3n2C)c(OC)c1 [Compound 14, N-(4-(4-amino-5-(3-fluoro-4-((1-oxotetrahydro-2H-1 λ^6-thiopyran-1-ylidene)amino)phenyl)-7-methyl-7H-pyrrolo[2,3-d]pyrimidin-6-yl)-3-methoxyphenyl) methacrylamide]	9.9
C=C(C)C(=O)Nc1ccc(-c2c(-c3ccc(N=S4(=O)CCCC4)cc3)c3c(N)ncnc3n2CC(C)(C)O)c(F)c1 [Compound 79, N-(4-(4-amino-7-(2-hydroxy-2-methylpropyl)-5-(4-((1-hydroperoxid-1λ^6-thiophene-1-ylidene)amino)phenyl) -7H-pyrrolo [2,3-d]pyrimidin-6-yl) -3-fluorophenyl) methacrylamide]	61.1
C=C(C)C(=O)Nc1ccc(-c2c(-c3ccc(N=S4(=O)CCN(C)CC4)c(F)c3)c3c(N)ncnc3n2C)cc1 [Compound 30, N-(4-(4-amino-5-(3-fluoro-4-((4-methyl-1-oxo-1 λ^6-thiomorpholin-1-ylidene)amino)phenyl) -7-methyl-7H-pyrrolo [2,3-d]pyrimidin-6-yl)phenyl) methacrylamide]	1440

Compound	IC50 [nM]
[2H]C([2H])([2H])n1c(-c2ccc(NC(=O)C(=C)C)cc2F)c(-c2ccc(N=S(C)(=O)c3ccccc3)c(F)c2)c2c(N)ncnc21 (stereo not shown) [Compound 96, N-(4-(4-amino-5-(3-fluoro-4-((methyl (oxo) (phenyl) - λ^6-sulfaneylidene)amino)phenyl) -7-(methyl-d3) -7H-pyrrolo [2,3-d]pyrimidin-6-yl) -3-fluorophenyl) methacrylamide]	29.8
C=C(C)C(=O)Nc1ccc(-c2c(-c3ccc(N=S(=O)(CC)CC)c(F)c3)c3c(N)ncnc3n2C)c(C)c1 [Compound 101]	4.7
C=C(C)C(=O)Nc1ccc(-c2c(-c3ccc(N=S(C)(=O)C4CCC4)cc3)c3c(N)ncnc3n2C)c(F)c1 (stereo not shown) [Compound 50, N-(4-(4-amino-5-(4-((cyclobutyl (methyl) (oxo) - λ^6-sulfanylidene)amino)phenyl) -7-methyl-7H-pyrrole [2,3-d]pyrimidin-6-yl) -3-fluorophenyl) methacrylamide]	7.6
C=C(C)C(=O)Nc1ccc(-c2c(-c3ccc(N=S4(=O)CCC(F)(F)CC4)cc3)c3c(N)ncnc3n2C)c(F)c1 [Compound 6, N-(4-(4-amino-5-(4-(4,4-difluoro-1-oxotetrahydro-2H-λ^6-thiopyran-1-imino)phenyl) -7-methyl-7H-pyrrolo [2,3-d]pyrimidin-6-yl) -3-fluorophenyl) methacrylamide]	9.3
[2H]C([2H])([2H])n1c(-c2cc(C)c(NC(=O)C(=C)C)cc2F)c(-c2ccc(N=S3(=O)CCCC3)c(F)c2)c2c(N)ncnc21 [Compound 91, N-(4-(4-amino-5-(3-fluoro-4-((1-tetrahydro-1λ^6-thiophene-1-ylidene)amino)phenyl) -7-(methyl-d3) -7H-pyrrolo [2,3-d]pyrimidin-6-yl) -5-fluoro-2-methylphenyl) methacrylamide]	23.9
N- (4- (4-amino-5- (4- (cyclopentyl (methyl) (oxo) - λ^6-sulfanylidene) amino) phenyl) -7-methyl-7H-pyrrole [2,3-d] pyrimidin-6-yl) -3-fluorophenyl) methacrylamide [Compound 49]	12.8
CC#CC(=O)N1CC=C(c2c(-c3ccc(N=S4(=O)CCCCC4)cc3)c3c(N)ncnc3n2C)CC1 [Compound 66]	27.8
C=C(C)C(=O)Nc1ccc(-c2c(-c3ccc(N=S(=O)(N(C)C)C(F)(F)F)cc3F)c3c(N)ncnc3n2C)cc1 (stereo not shown) [Compound 52, N-(4-(4-amino-5-(4-(((dimethylamino) (oxo) (trifluoromethyl) -λ^6-sulfanylidene)amino) -2-fluorophenyl) -7-methyl-7H-pyrrolo [2,3-d]pyrimidin-6-yl)phenyl) methacrylamide]	2.3
C=C(C)C(=O)N(C)c1ccc(-c2c(-c3ccc(N=S4(=O)CCCCC4)c(F)c3)c3c(N)ncnc3n2C)cc1 [Compound 46, N-(4-(4-amino-5-(3-fluoro-4-((1-oxotetrahydro 2H-1λ^6 - thiopyran-1-ylidene)amino)phenyl) -7-methyl-7H-pyrrolo [2,3-d]pyrimidin-6-yl)phenyl) - N-methylmethacrylamide]	162
C=C(CN(C)C)C(=O)Nc1ccc(-c2c(-c3ccc(N=S4(=O)CCCC4)c(F)c3)c3c(N)ncnc3n2C)cc1 [Compound 92]	0.8
C=C(C)C(=O)Nc1ccc(-c2c(-c3ccc(N=S(C)(C)=O)c(F)c3)c3c(N)ncnc3n2C)cc1 [Compound 44]	216
C=C(C)C(=O)Nc1ccc(-c2c(-c3ccc(N=S(=O)(CC)CC)cc3)c3c(N)ncnc3n2CC(F)(F)F)c(F)c1 [Compound 103]	13.9
C=C(C)C(=O)Nc1ccc(-c2c(-c3ccc(N=S4(=O)CCCCC4)c(F)c3)c3c(N)ncnc3n2C)cc1 [Compound 69, N-(4-(4-amino-5-(3-fluoro-4-((1-oxotetrahydro-2H-1λ^6-thiopyran-1-ylidene)amino)phenyl) -7-methyl-7H-pyrrolo [2,3-d]pyrimidin-6-yl)phenyl) methacrylamide]	11.4
C=C(C)C(=O)N1CC=C(c2c(-c3ccc(N=S4(=O)CCCCC4)cc3)c3c(N)ncnc3n2C)CC1 [Compound 3, 1-(4-(4-amino-7-methyl-5-(4-(1-oxotetrahydro-2H-1λ^6-thiopyran-1-imino)phenyl)-7H-pyrrolo[2,3-d]pyrimidin-6-yl)-3,6-dihydropyridine-1(2H)-yl)2-methylprop-2-enyl-1-one]	700
C=C(F)C(=O)Nc1ccc(-c2c(-c3ccc(N=S4(=O)CCCC4)cc3)c3c(N)ncnc3n2C)c(F)c1 [Compound 111]	< 0.15
